Data on one compound can be found in PMC10835127, “Viruses traverse the human proteome through peptide interfaces that can be biomimetically leveraged for drug discovery” (Proceedings of the National Academy of Sciences of the …, 2024).

The target of data set [1] is T1, MiNT (Homo sapiens, UniProt P0C7P0).
T1 construct: made in house; host or cells: E. coli
T1 sequence (P0C7P0 15-127): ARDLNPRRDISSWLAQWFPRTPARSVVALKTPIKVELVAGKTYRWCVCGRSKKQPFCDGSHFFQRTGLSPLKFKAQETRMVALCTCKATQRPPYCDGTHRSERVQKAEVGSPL
The data set can be described thus: In vitro NEET [2Fe-2S] cluster release, MiNT. It counts as biochemical. The note with it: recombinant MiNT, 37 °C, absorbance 460 nm. The protocol: (§1) MitoNEET ([60]) and NAF-1 ([61]) cytosolic domains and MiNT ([62]) were purified from E. coli as previously published. Experiments were performed in 96-well plates at 37 °C with […] of Fe-S cluster in a buffer composed of 50 mM Tris-HCl pH 7 and 100 mM NaCl. dEF3122 was dissolved in dimethyl sulfoxide (DMSO) at 10 mM. CPEP31 was dissolved in PBS at 10 mM. After 20 min of incubation of the protein with the molecule, NEET cluster release was followed by measuring the absorbance at 460 and 800 nm over time using a plate reader (SpectraMax ID3). The absorbance at 460 nm was corrected for the variation of the baseline (absorbance at 800 nm) over time and normalized at 1 at the beginning of the kinetics.

Data set [2] in a line: Microsomal stability, mouse liver microsomes. It counts as in vitro ADME. The note with it: male, CD-1, mouse, pH 7.4; murine liver microsomes; read-out: CLint mLM. The procedure: Tested compounds (1 μM) were incubated with pooled human liver microsomes (Xenotech; pooled male and female) and pooled mouse liver microsomes (Xenotech; male CD-1 mice).
Microsomes (final protein concentrations of 0.25 and 0.5 mg/ml, 0.1 M phosphate buffer pH 7.4) containing tested compound (final substrate concentration 1 μM; final DMSO concentration 0.25 %) were preincubated at 37 °C prior to the addition of NADPH (final concentration 1 mM) to initiate the reaction. The final incubation volume was 200 μl. 3 species-specific control compounds were included with each species. At 5 time points (0, 5, 10, 20, and 40 min), reactions were stopped by transferring 50 μl of the incubation mixture into 0.5 μM carbamazepine in acetonitrile. Tested compound concentrations were analyzed by LC-MS/MS and the resulting data were used to determine the half-life and intrinsic clearance of the compound in each

Data set [3] has as its target T2, NAF-1 (Homo sapiens, UniProt Q8N5K1).
T2 construct: MitoNEET ([60]) and NAF-1 ([61]) cytosolic domains and MiNT ([62]) were purified from E. coli as previously published; made in house; host or cells: E. coli
T2 sequence (Q8N5K1 61-135 limits assumed): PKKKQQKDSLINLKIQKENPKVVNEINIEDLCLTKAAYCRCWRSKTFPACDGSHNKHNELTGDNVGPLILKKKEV
The data set can be described thus: In vitro NEET [2Fe-2S] cluster release, NAF-1. The class given is biochemical. The note with it: recombinant NAF-1, 37 °C, absorbance 460 nm. The protocol:
as §1

Data set [4] is described as follows: PK parameters in mice. The class given is in vivo, male Swiss (CD-1) mice. The note with it: mouse. The procedure:
PK parameters and tissue distribution in mice
The pharmacokinetic profiles of the tested compounds were evaluated in male Swiss (CD-1) mice around 5-6 weeks old (3 animals per sampling time). […]
0.2 % Tween 80 in water. Blood samples were collected (0.25 mL) from the sinus retro-orbital […]
24 hr for p.o. route. The blood samples were immediately centrifuged at 2500 rpm at +4 °C, and the plasma was stored at −80 °C. 50 μL of plasma sample was taken and 150 μL of acetonitrile was added. After protein precipitation, analysis of the molecule was performed using LC-MS/MS to determine plasma compound concentration. For liver and lung collection, 3 animals per group were involved and sampled after 2 hr and 24 hr upon 20 mg/kg p.o. administration. Animals were perfused with around 10 mL of saline solution directly into the heart to extract the maximal blood sample from the liver and the lung. Animals were then sacrificed by cervical dislocation and liver

The nature of data set [5]: Cryopreserved hepatocyte stability, human. It counts as in vitro ADME. The note with it: cryopreserved hepatocytes, read-out: CLint hHep. The protocol:
Cryopreserved hepatocyte stability
Tested compounds (1 μM) were incubated with human cryopreserved hepatocytes (pool of 5) (IVT Celsis) and mouse cryopreserved hepatocytes (IVT Celsis). Hepatocytes (1, 0.5 or 0.25 x10^6 cells/mL, Williams’ Medium E (WME) with 4 mM L-glutamine and 2 mM magnesium sulphate) containing tested compound (final substrate concentration 1 μM; final DMSO concentration 0.25 %) were preincubated at 37 °C. The final incubation volume was 500 μl. 3 species-specific control compounds were included with each species. At 7 time points (0, 10, 20, 40, 60, 90, and 120 min), reactions were stopped by transferring 50 μl of the incubation mixture into 0.5 μM carbamazepine in cold acetonitrile. Tested compound concentrations were analyzed by LC-MS/MS and the resulting data were used to determine the half-life and intrinsic clearance of the compound in each species. […]

Data set [6] has as its target T3, MitoNEET (Homo sapiens, UniProt Q9NZ45).
T3 construct: MitoNEET ([60]) and NAF-1 ([61]) cytosolic domains and MiNT ([62]) were purified from E. coli as previously published; made in house; host or cells: E. coli
T3 sequence (Q9NZ45 32-108 limits assumed): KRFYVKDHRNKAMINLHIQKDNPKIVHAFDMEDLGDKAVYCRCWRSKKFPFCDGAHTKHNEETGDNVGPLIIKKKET
The data set can be described thus: In vitro NEET [2Fe-2S] cluster release, MitoNEET. It counts as biochemical. Conditions: recombinant MitoNEET, 37 °C, absorbance 460 nm. The protocol: as §1

A short description of data set [7]: in vivo. The note with it: male, Sprague Dawley, rat, 50 mg/kg, 50 mg/kg per os. The protocol: For this molecule, both antiviral potency (IC50 of 3 nM) and PK properties were improved, with low clearance and high exposure in mouse plasma. […] The tissue distribution was also assessed at two different time points (2 and 24 h) after per os administration in mice (20 mg/kg) and rats (50 mg/kg) (Fig. 5C). […] Such low lung/plasma ratio precluded the use of dEF3122 in respiratory diseases such as influenza without further optimization.

The subject of data set [8] is influenza A H1N1 virus. The data set can be described thus: microbe, parasite or virus in culture. Conditions: H1N1, A549, read-out: Neuraminidase activity assay IC50.
The nature of data set [9]: in vivo. The note with it: male, CD1, mouse, 20 mg/kg, 20 mg/kg per os.

Like-named read-outs stand apart in the source and are kept apart here.

For `O=C(Nc1scc(C2CCc3ccccc3C2)c1C(=O)O)c1ccccc1` (centres unmarked) [dEF3122], the “interaction by [2Fe-2S] cluster release assay” value in [1], in data set [3] and in [6] was “validated the interaction” throughout. For the same compound, the microsomal CLint at 1 µM in data set [2] was found to be 24 µL/min/mg. For the same compound, the peak level in [4] (male, Swiss (CD-1), plasma, po 2 mg/kg (dose for AUC)) (Cmax) was 1600 ng/mL. The bioavailability (commonly dose-corrected exposure relative to a reference, in per cent) in data set [4] (male, Swiss (CD-1), plasma, po 2 mg/kg, iv 0.25 mg/kg) was 36%. The “plasma concentration reached after oral administration, molar equivalent” value in data set [4] (po 2 mg/kg) is 2600 nM. For the same compound, the hepatocyte CLint at 1 µM in [5] turned out to be 19 µL/min/1e6 cells. Moreover, the Kp in [7] (2 h, read-out: Liver:Plasma Ratio) turned out to be 0.91; in [7] (2 h, read-out: Lung:Plasma Ratio) it was 0.11; in data set [7] (24 h, read-out: Liver:Plasma Ratio), 0.78; in data set [7] (24 h, read-out: Lung:Plasma Ratio), 0.18; in [9] (Liver:Plasma Ratio, 2 h), 0.45; in data set [9] (Liver:Plasma Ratio, 24 h), 0.88. Besides, the Kp amounted to 0.12 in [9] (Lung:Plasma Ratio, 2 h) and 0.13 in [9] (Lung:Plasma Ratio, 24 h). Moreover, in data set [8], the IC50 (usually the concentration at which inhibition is half-maximal) came to 3 nM.
